This note sets out measurements from PMC11503492, “Activity-Based DNA-Encoded Library Screening for Selective Inhibitors of Eukaryotic Translation” (ACS Central Science, 2024).

For assay [1], the system named is MST1[1:39]-GFP translation. Kind of assay: WG IVTT activity assay, MST1[1:39]-GFP template. Format: biochemical, wheat germ. Particulars: WG IVTT dose-response. On the procedure: page 21: 421 region sequences were matched to an alpha numeric DNA region identifier (11[…], respectively), while allowing a 1-bp mutation per encoding region. 423 No insertions or deletions were tolerated. […] A sum of UMI counts for all remaining unique combinations 429 of encoding region identifiers was then determined using a UMI aggregation algorithm; 430 1 bp mutations were considered the same UMI. Encoding region identifiers were then 431 converted to library BB identifiers per the library design with an associated UMI count. 432 Any encoding region/ bead-specific barcode combinations with a UMI count below a 433 manually determined threshold (10) were discarded. The remaining ”valid beads” were 434 aggregated by cycle 1/2 BB combinations and the number of unique encoding regions 435 observed for each BB combination defined the k-class for that BB combination.S8 436 Microplate IVTT Assays 437 Wheat germ lysate IVTT plate assays were prepared as 5 μL reactions. […] Template (1 μL) was added and reaction 440 progress was immediately monitored (λex = 480 nm, λem = 530 nm, 27 °C, 2 h). […] activity was calculated using the slope of fluorescence increase over time (at 15-30 442 min post reaction initiation) for compound samples relative to that of the DMSO vehicle 443 control. […]

The test system of assay [2] is PCSK9 expression in HepG2 cells. Description: HepG2 cellular assay, PCSK9 Western blot. The assay is classed as cell-based. The settings on record: 16 h treatment, 5 or 50 µM, triplicate, normalized to DMSO. As for the experimental part:
Reaction buffer (1 µL) and template (0.5 µL) were added and reaction progress was
Relative activity was cal-
450 culated using the slope of fluorescence increase over time (15–30 min post reaction initia-
Gene blocks were purchased from IDT
Digestion with Sgf I and PmeI allowed for
Sequence-verified plasmids
460 were cloned into DH5α E. coli for standard large-scale DNA plasmid preparation.
Gene blocks were purchased
Digestion with NdeI and XhoI
470 (4.5 g/L high-glucose DMEM, 2 mM L-glutamine, 10% fetal bovine serum, 1% penicillin-
Cells were lysed (100 µL RIPA buffer,
Protein lysates (24 µg) were separated by denaturing polyacrylamide
480 PCSK9 rabbit monoclonal antibody, 5% BSA in PBS-T). The PCSK9 probed membrane
HRP-labeled bands were visualized
Figure S12. […] PCSK9 expression in HepG2 cells
treated 16 h with PF846 or screening hit 8 (5 or 50 µM) or vehicle control (DMSO) was analyzed in triplicate
(also on this page, place not known: S12894 GAPDH pro m DMSO 5 μM DMSO μM 5 μM 50 μM PCSK9 PF846 hit8 50)
(1 picture or pasted object on this page, not shown here)
For orientation: A western blot detects proteins with antibodies after separation by electrophoresis.

“Also recorded” adds a separate entry of the source.

Consider `Cc1cccc2ccnc(N(C(=O)[C@H]3CCCN(C(=O)c4cccc5c(C#N)c[nH]c45)C3)[C@@H]3CCCNC3)c12` [Compound 8], for which the “activity on MST1[1:39]-GFP translation (in words)” value in assay [1] is “inactive”. For the same molecule, in assay [2], the “PCSK9 protein levels in HepG2 cells (in words)” value is given as “significantly reduced; also recorded: lower levels of endogenous PCSK9”.
